From patent publication US20220146526A1, “METHOD FOR EVALUATING SAMPLE, ANALYSIS METHOD, METHOD FOR DETECTING DEGRADED SAMPLE, MARKER FOR DETECTING DEGRADED BLOOD PLASMA SAMPLE, AND MARKER FOR DETECTING DEGRADED SERUM SAMPLE” (SHIMADZU CORPORATION, priority 2019, published 2022)
“Also recorded” adds a separate entry of the source.

Assays:
Format in all cases: physicochemical, human
[1] = GC/MS of blood plasma sample: time from blood collection to cooling of blood (Table B); set-up: key to Rate of increase or decrease / Rate of increase or decrease (first value, increase): detection intensity relative to 1 at cooling time ≤1 min; conditions: for Rate of increase or decrease: detection intensity relative to 1 at 1 minute or less, blood collection to cooling 5 minutes; for Increase or decrease: detection intensity, blood collection to cooling 5 minutes or more vs 1 minute or less
Protocol: (§1) At room temperature, 5 mL of blood from a healthy subject was taken into a blood-collecting vessel containing EDTA, and the blood-collecting vessel was inverted for mixing, then cooled, and allowed to stand at 4° C. Here, in order to investigate how the detection intensity of molecules contained in the sample was affected in a case where the time to cooling was set to 5 minutes or more as compared to that in a case where the time to cooling was set to 1 minute or less, preparations were performed under both the former condition and the latter condition. After standing, the blood sample was subjected to centrifugation under a condition of 4° C., 3000 rpm, and 15 minutes. […] After centrifugation, the blood-collecting vessel was left to stand at room temperature for 30 minutes, and the blood plasma was isolated during this 30 minutes. The obtained blood plasma sample was frozen and stored. Here, in order to investigate how the detection intensity of molecules contained in the sample was affected in cases where freezing and thawing was performed 4 times, 6 times, and 10 times after freezing as compared to that in a case where freezing and thawing was performed 2 times after freezing, freezing and thawing was performed under the respective conditions of 2, 4, 6, and 10 times.
(§2) Frozen blood plasma samples and serum samples were subjected to GC/MS or LC/MS. In GC/MS, the blood plasma samples and serum samples were subjected to methoxymation and trimethylsilylation and then introduced to GC-MS.
GC/MS was conducted using GCMS·TQ8040 (Shimadzu Corporation) that was a GC·MS equipped with AOC·20i (Shimadzu Corporation) as an autosampler.
Column: BPX5 (inner diameter of 0.25 mm, length of 30 m, and film thickness of 0.25 μm) (SGE)
Column temperature: maintained at 60° C. for 2 minutes, then raised at 15° C./min, and maintained at 330° C. for 3 minutes.
Inlet temperature: 250° C.
Carrier gas control mode: constant linear velocity of 39.0 cm/sec
Sample introduction method: split (split ratio of 30:1) Injection volume: 1 μL
Ionization method: electron ionization
Ionization current: 60 μA
Interface temperature: 280° C.
Ion source temperature: 200° C.
(§3) Mode: multiple reaction monitoring (MRM)
Table B presents compounds of which the detection intensity increased or decreased by 30% or more in a case where the time from blood collection to cooling of blood, when a blood plasma sample was analyzed by GC/MS, was set to 5 minutes or more as compared to that in a case where the time was set to 1 minute or less. The rate of increase or decrease in Table B is the value of detection intensity relative to 1 that is the detection intensity in a case where the time from blood collection to cooling is set to 1 minute or less.

[2] = GC/MS of serum sample: number of times of freezing and thawing (Table I); set-up: key to Rate of increase or decrease / Rate of increase or decrease (first value, increase): detection intensity relative to 2 freeze-thaw cycles = 1; conditions: serum, GC/MS; for Increase or decrease: detection intensity, freezing and thawing 4 times vs 2 times
In short: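 Serum was isolated after centrifugation at room temperature (3500 rpm, 5 min), frozen, and put through 2, 4, 6 or 10 freeze–thaw cycles. Samples were methoxymated and trimethylsilylated, then run by electron-ionization GC/MS in MRM mode on a BPX5 column (60 to 330 °C). Detection intensity is given relative to the 2-cycle sample, set as 1.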

[3] = GC/MS of serum sample: time from blood collection to centrifugation (Table G); conditions: blood collection to centrifugation; for Rate of increase or decrease: detection intensity relative to 1 at 15 minutes; for Increase or decrease: detection intensity
In short: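 Blood was held for varying times before centrifugation (room temperature, 3500 rpm, 5 min); serum was frozen, then methoxymated and trimethylsilylated for GC/MS with electron ionization in MRM mode. Values are detection intensities relative to the 15-minute collection-to-centrifugation condition, set as 1.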

[4] = GC/MS of serum sample: time from centrifugation to isolation (Table H); set-up: key to Rate of increase or decrease / Rate of increase or decrease (first value, increase): detection intensity relative to 1 at 30 min centrifugation-to-isolation
In short: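 Blood was centrifuged at room temperature, 3500 rpm, 5 min, and the vessel left at room temperature for 30 min, 1 h or 6 h before serum isolation. Serum was methoxymated, trimethylsilylated and analysed by GC/MS with electron ionization in MRM mode; intensities expressed relative to the 30-min condition (=1).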

[5] = LC/MS of blood plasma sample: time from blood collection to centrifugation (Table D); conditions: blood collection to centrifugation
In short: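 Healthy-subject blood (5 mL, EDTA) cooled and held at 4 °C before centrifugation (4 °C, 3000 rpm, 15 min), with plasma then frozen. LC/MS on Discovery HS F5-3 column at 40 °C, 0.1% formic acid water/acetonitrile, 0.25 mL/min, electrospray, MRM; intensities relative to 15 min collection-to-centrifugation set as 1.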

[6] = LC/MS of blood plasma sample: number of times of freezing and thawing (Table F)
Protocol: as §1, §2
(§4) Analysis column: Discovery HS F5-3 (inner diameter of 2.1 mm, length of 150 mm, film thickness of 3 μm) (Sigma-Aldrich)
(§5) Column temperature: 40° C.
(§6) (A) 0.1% formic acid (dissolved in water)
(§7) (B) 0.1% formic acid (dissolved in acetonitrile)
(§8) Flow velocity: 0.25 mL/min
(§9) Ionization method: electrospray
(§10) Temperature: • Desolvation Line (DL) temperature: 250° C. • Heat block temperature: 400° C. • Interface temperature: 300° C.
(§11) Gas flow rate: • Nebulizer gas flow rate: 3.0 L/min • Drying gas flow rate: 10.0 L/min • Heating gas flow rate: 10.0 L/min
as §3
The rate of increase or decrease in Table F is the value of detection intensity relative to 1 that is the detection intensity in a case where the number of times of freezing and thawing is set to 2 times.

[7] = LC/MS of serum sample: time from blood collection to centrifugation (Table J)
Protocol: After standing, the blood sample was subjected to centrifugation under a condition of room temperature, 3500 rpm, and 5 minutes. […] After centrifugation, the blood-collecting vessel was left to stand at room temperature, and the serum was isolated during this time. Here, in order to investigate how the detection intensity of molecules contained in the sample was affected in cases where the time during which the blood-collecting vessel was left at room temperature was set to 1 hour and 6 hours as compared to that in a case where the time was set to 30 minutes, preparations were performed under the respective conditions of 30 minutes, 1 hour, and 6 hours. The obtained serum sample was frozen and stored. Here, in order to investigate how the detection intensity of molecules contained in the sample was affected in cases where freezing and thawing was performed 4 times, 6 times, and 10 times after freezing as compared to that in a case where freezing and thawing was performed 2 times after freezing, freezing and thawing was performed under the respective conditions of 2, 4, 6, and 10 times.
as §2, §4, §5, §6, §7, §8, §9, §10, §11, §3
The rate of increase or decrease in Table J is the value of detection intensity relative to 1 that is the detection intensity in a case where the time from blood collection to centrifugation is set to 15 minutes.

[8] = LC/MS of serum sample: number of times of freezing and thawing (Table M); set-up: key to Rate of increase or decrease: detection intensity relative to 1 at 2 freeze-thaw cycles
In short: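 Serum was isolated at room temperature after centrifugation at room temperature, 3500 rpm, 5 minutes, then frozen and freeze-thawed 2, 4, 6 or 10 times. LC/MS used a Discovery HS F5-3 column at 40° C with formic acid water/acetonitrile, electrospray MRM. Intensity is relative to 2 freeze-thaw cycles.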

Row | Compound | Rate of increase or decrease [1] | Increase or decrease [1] | Rate of increase or decrease ([2]; detection intensity relative to 1 at 2 times, freezing and thawing 4 times) | Increase or decrease [2] | Rate of increase or decrease ([3]; after 4 hours) | Rate of increase or decrease ([3]; after 12 hours) | Increase or decrease ([3]; after 4 hours vs 15 minutes) | Increase or decrease ([3]; after 12 hours vs 15 minutes) | Rate of increase or decrease ([4]; detection intensity relative to 1 at 30 minutes, after 1 hour) | Increase or decrease ([4]; detection intensity, after 1 hour vs 30 minutes) | Rate of increase or decrease ([5]; detection intensity relative to 1 at 15 minutes, after 12 hours) | Increase or decrease ([5]; detection intensity, after 12 hours vs 15 minutes) | Rate of increase or decrease ([6]; detection intensity relative to 1 at 2 times, freezing and thawing 10 times) | Increase or decrease ([6]; detection intensity, freezing and thawing 10 times vs 2 times) | Rate of increase or decrease ([7]; after 12 hours from blood collection to centrifugation, detection intensity relative to 1 at 15 minutes) | Increase or decrease ([7]; serum sample, LC/MS, detection intensity vs 15 minutes from blood collection to centrifugation) | Time when compound is affected ([7]; serum sample, LC/MS, time from blood collection to centrifugation, detection intensity changed by 30% or more vs 15 minutes) | Rate of increase or decrease ([8]; 6 times of freezing and thawing, detection intensity relative to 1 at 2 times) | Number of times when compound is affected ([8]; serum sample, LC/MS, detection intensity changed by 30% or more vs 2 times of freezing and thawing) [times] | Increase or decrease ([8]; serum sample, LC/MS, detection intensity vs 2 times of freezing and thawing)
1 | O=CC(=O)O [Glyoxylic acid] | 1.37 | Increase | 0.63 | Decrease | – | – | – | – | – | – | – | – | – | – | – | – | – | – | – | –
2 | O=C1CCNC(=O)N1 [Dihydrouracil] | 1.42 | Increase | – | Increase; also recorded: Decrease | 3.17 | 1.30 | Increase | Decrease | 0.30 | Decrease | – | – | – | – | – | – | – | – | – | –
3 | CC(C)C[C@H](N)C(=O)O [Leucine] | – | – | – | – | – | – | – | – | – | – | 0.69 | Decrease | 1.35 | Increase | 1.35 | Increase | After 12 hours | 0.66 | 6 | Decrease
